In patent US20250289789A1, “REVERSIBLE LYSINE COVALENT MODIFIERS OF CDK2 AND USES THEREOF” (Terremoto Biosciences, Inc., priority 2023, published 2025):
Read-outs that look alike come from different tables or passages of the source.

Experiments:
Assay type in all cases: cell-based
[1] = tested on: Phospho-Rb Ser807/811 in OVCAR3 cells; assay: OVCAR3 Phospho-Rb Ser807/811 HTRF assay; conditions: OVCAR3 cells, Phospho-Rb Ser807/811 HTRF, 1 hour incubation, read-out: pRb-OVCAR3 IC50
Description: Cells were trypsinized and resuspended in 1 mM hydroxyurea (Sigma; H8627), 90% RPMI and 10% fetal bovine serum. […] Dose response curve normalized to DMSO control was plotted using four-parameter logistic model for IC50 calculation.

[2] = biological target: T1, CDK1-NanoLuc fusion with CCNB1 in 293T or 293 cells (Homo sapiens, UniProt P06493); assay: NanoBRET Target Engagement (TE) Intracellular Kinase Assay, CDK1/CCNB1; conditions: NanoBRET TE intracellular kinase assay, 2-hour incubation, read-out: NanoBRET-CDK1/B1 IC50
T1 construct: host or cells: 293T (ATCC CRL-3216) or 293 (ATCC CRL-1573)
T1 sequence (P06493 whole entry, the tested form may be a part): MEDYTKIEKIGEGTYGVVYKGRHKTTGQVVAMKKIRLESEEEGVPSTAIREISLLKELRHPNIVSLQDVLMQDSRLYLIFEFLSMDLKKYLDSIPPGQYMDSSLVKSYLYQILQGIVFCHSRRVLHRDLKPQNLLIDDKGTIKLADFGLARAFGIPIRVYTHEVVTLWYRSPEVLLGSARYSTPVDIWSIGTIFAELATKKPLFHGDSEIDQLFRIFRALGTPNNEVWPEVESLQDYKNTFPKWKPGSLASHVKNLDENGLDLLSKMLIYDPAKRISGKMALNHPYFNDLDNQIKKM
T1 sequence (P14635 whole entry partner, the tested form may be a part): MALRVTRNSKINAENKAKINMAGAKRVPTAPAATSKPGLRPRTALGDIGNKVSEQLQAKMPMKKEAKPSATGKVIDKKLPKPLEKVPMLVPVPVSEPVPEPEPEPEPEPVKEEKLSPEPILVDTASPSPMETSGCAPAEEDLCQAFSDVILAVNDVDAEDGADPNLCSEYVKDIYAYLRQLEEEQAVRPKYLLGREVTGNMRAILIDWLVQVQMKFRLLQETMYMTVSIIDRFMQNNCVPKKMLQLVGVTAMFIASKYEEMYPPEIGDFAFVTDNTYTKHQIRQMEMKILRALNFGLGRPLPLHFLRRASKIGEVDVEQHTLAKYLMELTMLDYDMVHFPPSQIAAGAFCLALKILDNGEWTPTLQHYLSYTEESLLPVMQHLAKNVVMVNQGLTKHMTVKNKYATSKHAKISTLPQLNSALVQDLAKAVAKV
Description: Inhibitory effects of compounds were measured in NanoBRET TE Intracellular Kinase Assay. 293T (ATCC; CRL-3216) or 293 (ATCC; CRL-1573) cell lines were maintained in 90% DMEM and 10% fetal bovine serum at 37° C., 5% CO2, and 95% relative humidity. Cells were trypsinized and resuspended in assay media (99% Opti-MEM I Reduced Serum Medium, no phenol red, and 1% fetal bovine serum). Cells were co-transfected with 1 μg/mL of CDK-NanoLuc Fusion Vector (Promega; NV2701 for CDK1, NV2781 for CDK2, NV2811 for CDK4, NV2841 for CDK6) and 1 μg/mL of the corresponding Cyclin Expression Vector (Promega; NV2601 for CCNB1, NV2641 for CCNE1, NV2621 for CCND1, NV2631 for CCND3) using FuGENE HD Transfection Reagent (Promega; E2311). 40 uL/well of cells with transfection mixture were seeded in 384-well plates at 1.25×10^5 to 2×10^5 cells/mL and incubated for 24 hours at 37° C., 5% CO2, and 95% relative humidity. On the next day, 100 nL of 100 μM NanoBRET Tracer K-10 (Promega; N2640) and 40 nL of 1000× test compounds prepared in DMSO were added to the cells in each well of 384-well plates for a 2-hour incubation at 37° C., 5% CO2, and 95% relative humidity. 20 uL/well of 3× Intracellular TE Nano-Glo Substrate/Inhibitor (Promega; N2162) were added to 384-well plates and incubated for 3 minutes at room temperature. NanoBRET signals (donor emission wavelength at 450 nm, acceptor emission wavelength at 610 nm) were measured using Envision plate reader (PerkinElmer). NanoBRET ratio was calculated by: BRET Ratio=raw signal for acceptor/raw signal for donor. Dose response curve normalized to DMSO control was plotted using four-parameter logistic model for IC50 calculation.

[3] = biological target: T2, CDK4-NanoLuc fusion with CCND1 in 293T or 293 cells (Homo sapiens, UniProt P11802); assay: NanoBRET Target Engagement (TE) Intracellular Kinase Assay, CDK4/CCND1; conditions: NanoBRET TE intracellular kinase assay, 2-hour incubation, read-out: NanoBRET-CDK4/D1 IC50
T2 construct: host or cells: 293T (ATCC CRL-3216) or 293 (ATCC CRL-1573)
T2 sequence (P11802 whole entry, the tested form may be a part): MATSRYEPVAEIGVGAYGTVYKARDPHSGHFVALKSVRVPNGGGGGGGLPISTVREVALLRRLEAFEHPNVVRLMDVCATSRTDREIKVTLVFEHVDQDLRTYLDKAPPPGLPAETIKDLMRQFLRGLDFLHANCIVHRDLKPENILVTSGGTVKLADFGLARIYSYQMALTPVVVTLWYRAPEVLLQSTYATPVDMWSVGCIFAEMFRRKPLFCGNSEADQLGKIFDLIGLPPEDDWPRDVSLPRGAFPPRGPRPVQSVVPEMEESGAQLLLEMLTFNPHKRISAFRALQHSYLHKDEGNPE
T2 sequence (P24385 whole entry partner, the tested form may be a part): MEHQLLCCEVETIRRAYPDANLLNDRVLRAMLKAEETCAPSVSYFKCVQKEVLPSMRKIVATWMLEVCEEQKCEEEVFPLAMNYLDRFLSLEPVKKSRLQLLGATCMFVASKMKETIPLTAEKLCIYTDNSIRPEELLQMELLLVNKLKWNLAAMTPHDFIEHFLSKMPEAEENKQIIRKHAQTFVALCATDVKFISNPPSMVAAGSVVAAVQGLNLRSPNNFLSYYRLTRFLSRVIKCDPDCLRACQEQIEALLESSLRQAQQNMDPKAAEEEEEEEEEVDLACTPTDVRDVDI

[4] = biological target: T3, CDK2-NanoLuc fusion with CCNE1 in 293T or 293 cells (Homo sapiens, UniProt P24941); assay: NanoBRET Target Engagement (TE) Intracellular Kinase Assay, CDK2/CCNE1; conditions: NanoBRET TE intracellular kinase assay, 2-hour incubation, read-out: NanoBRET-CDK2/E1 IC50
T3 construct: host or cells: 293T (ATCC CRL-3216) or 293 (ATCC CRL-1573)

Row | SMILES | IC50 ([1]; Homo sapiens, OVCAR-3, 1 h) [nM] | IC50 [2] [nM] | IC50 [3] [nM] | IC50 [4] [nM] | IC50 [1] [nM]
1 | CC(=O)Nc1ccc(C(=O)Nc2cc([C@H]3CC[C@@H](OC(=O)NC(C)C)C3)[nH]n2)cc1C=O [Compound 38, (1R,3S)-3-[5-(4-acetamido-3-formylbenzamido)-2H-pyrazol-3-yl]cyclopentyl N-isopropylcarbamate] | 542 | 264 | 576 | 10.6 | 
2 | COc1cc(O)c(C=O)c(OCC(=O)Nc2cc([C@H]3CC[C@@H](OC(=O)N4CCCC4)C3)[nH]n2)c1 [Compound 255, (1R,3S)-3-(3-(2-(2-formyl-3-hydroxy-5-methoxyphenoxy)acetamido)-1H-pyrazol-5-yl)cyclopentyl pyrrolidine-1-carboxylate] | 32.8 | 10.9 | 4270 | 2.24 | 
3 | CC(C)NC(=O)O[C@@H]1CC[C@H](c2cc(NC(=O)c3cc(-c4cccc(O)c4C=O)n(C)n3)n[nH]2)C1 [Compound 59, (1R,3S)-3-{5-[5-(2-formyl-3-hydroxyphenyl)-1-methylpyrazole-3-amido]-2H-pyrazol-3-yl}cyclopentyl N-isopropylcarbamate] | 2300 | 362 | > 10000 | 32.1 | 
4 | CC(C)NC(=O)O[C@@H]1CC[C@H](c2cc(NC(=O)CCCc3cccc(O)c3C=O)n[nH]2)C1 [Compound 12, 1R,3S)-3-(3-(4-(2-formyl-3-hydroxyphenyl)butanamido)-1H-pyrazol-5-yl)cyclopentyl isopropylcarbamate] |  | 126 | 1450 | 11.1 | 
5 | CC(C)NC(=O)O[C@@H]1CC[C@H](c2cc(NC(=O)[C@@H]3Cc4ccc(O)c(C=O)c4C3)n[nH]2)C1 [Compound 26, (1R,3S)-3-{5-[(2R)-4-formyl-5-hydroxy-2,3-dihydro-1H-indene-2-amido]-2H-pyrazol-3-yl}cyclopentyl N-isopropylcarbamate] | 94.5 | 21.7 |  | 2.78 | 
6 | CC(C)NC(=O)O[C@@H]1CC[C@H](c2cc(NC(=O)CNc3cccc(O)c3C=O)n[nH]2)C1 [Compound 259] |  | 8060 | > 10000 | 649 | 
7 | Cc1cc(O)c(C=O)c(OCC(=O)Nc2cc([C@H]3CC[C@@H](OC(=O)N4C5CCC4CC5)C3)[nH]n2)c1 [Compound 161] | 68.6 |  | 7360 | 2.79 | 
8 | COc1cc(O)c(C=O)c(OCC(=O)Nc2cc([C@H]3CC[C@@H](OC(=O)N4[C@@H]5CC[C@H]4C[C@H](C#N)C5)C3)[nH]n2)c1 [Compound 154] | 27.8 |  | 2100 | 7.73 | 
9 | COc1cc(O)c(C=O)c(OCC(=O)Nc2cc([C@H]3CC[C@@H](OC(=O)Nc4ccccc4)C3)[nH]n2)c1 [Compound 164] | 301 |  | 5880 | 9.6 | 
10 | CC(C)NC(=O)O[C@@H]1CC[C@H](c2cc(NC(=O)[C@@H]3Cc4ccc(O)c(C=O)c4C3)n[nH]2)C1 [Compound 256] | 68.9 | 20.3 |  | 3.76 | 
11 | COc1cc(O)c(C=O)c2c1CC(C(=O)Nc1cc([C@H]3C[C@@H](OC(=O)N(C)N(C)C)C3)n[nH]1)C2 (single isomer, unassigned) [Compound 271] |  |  | 3250 | 240 | > 10000
12 | COc1cc(O)c(C=O)c2c1CC(C(=O)Nc1cc([C@H]3CC[C@@H](OC(=O)N4CCCN4C)C3)[nH]n1)C2 (single isomer, unassigned) [Compound 262, (1R,3S)-3-(3-((*)-4-formyl-5-hydroxy-7-methoxy-2,3-dihydro-1H-indene-2-carboxamido)-1H-pyrazol-5-yl)cyclopentyl 2-methylpyrazolidine-1-carboxylate] |  |  | 5080 | 4.42 | 51.8
13 | COc1cc(O)c(C=O)c2c1CC(C(=O)Nc1cc([C@H]3CC[C@@H](OC(=O)NN(C)CC(F)(F)F)C3)[nH]n1)C2 (single isomer, unassigned) [Compound 264, (1R,3S)-3-(3-((*)-4-formyl-5-hydroxy-7-methoxy-2,3-dihydro-1H-indene-2-carboxamido)-1H-pyrazol-5-yl)cyclopentyl 2-methyl-2-(2,2,2-trifluoroethyl)hydrazine-1-carboxylate] |  |  | 512 | 5.95 | 13.6
14 | COc1cc(O)c(C=O)c(OCC(=O)Nc2cc([C@H]3CC[C@@H](OC(=O)N(OC)C(C)C)C3)[nH]n2)c1 [Compound 171] | 107 |  | > 10000 | 3.24 | 
15 | COc1cc(O)c(C=O)c2c1CC(C(=O)Nc1cc([C@H]3CC[C@@H](OC(=O)N4CCCCN4C)C3)[nH]n1)C2 (single isomer, unassigned) [Compound 267, (1R,3S)-3-(3-((*)-4-formyl-5-hydroxy-7-methoxy-2,3-dihydro-1H-indene-2-carboxamido)-1H-pyrazol-5-yl)cyclopentyl 2-methyltetrahydropyridazine-1(2H)-carboxylate] |  |  | 266 | 21.8 | 5230

Now from value to molecule:

Row | IC50 ([1]; Homo sapiens, OVCAR-3, 1 h) [nM] | IC50 [2] [nM] | IC50 [3] [nM] | IC50 [4] [nM] | IC50 [1] [nM] | SMILES
16 | 363 |  | > 10000 | 445 |  | COc1cc(O)c(C=O)c(OCC(=O)Nc2cc([C@H]3CC[C@@H](OC(=O)NC4CN(C)C4)C3)[nH]n2)c1 [Compound 185]
17 | 92.7 |  | > 10000 | 3.41 |  | CCCONC(=O)O[C@@H]1CC[C@H](c2cc(NC(=O)COc3cc(OC)cc(O)c3C=O)n[nH]2)C1 [Compound 135]
18 | 20.9 |  | 1310 | 1.99 |  | COc1cc(O)c(C=O)c(OCC(=O)Nc2cc([C@H]3CC[C@@H](OC(=O)N4C[C@H](F)[C@@H]4C)C3)[nH]n2)c1 [Compound 122]
19 | 35.7 |  | 5300 | 3.11 |  | CCN(NC)C(=O)O[C@@H]1CC[C@H](c2cc(NC(=O)COc3cc(OC)cc(O)c3C=O)n[nH]2)C1 [Compound 275, (1R,3S)-3-(3-(2-(2-formyl-3-hydroxy-5-methoxyphenoxy)acetamido)-1H-pyrazol-5-yl)cyclopentyl 1-ethyl-2-methylhydrazine-1-carboxylate]
20 | 34.2 |  | 5340 | 3.99 |  | COc1cc(O)c(C=O)c(OCC(=O)Nc2cc([C@H]3CC[C@@H](OC(=O)N(O)C(C)C)C3)[nH]n2)c1 [Compound 173]
21 | 22.9 |  | 773 | 2.27 |  | CCN(C(=O)O[C@@H]1CC[C@H](c2cc(NC(=O)COc3cc(OC)cc(O)c3C=O)n[nH]2)C1)C(C)C [Compound 169]
22 | 66.1 |  | > 10000 | 6.24 |  | CCCNC(=O)O[C@H]1C[C@@H](c2cc(NC(=O)COc3cc(OC)cc(O)c3C=O)n[nH]2)C1 [Compound 182, (1s,3s)-3-(3-(2-(2-formyl-3-hydroxy-5-methoxyphenoxy)acetamido)-1H-pyrazol-5-yl)cyclobutyl propylcarbamate]
23 | 23.5 |  | 1580 | 2.68 |  | CCN(CC)C(=O)O[C@@H]1CC[C@H](c2cc(NC(=O)COc3cc(OC)cc(O)c3C=O)n[nH]2)C1 [Compound 180]
24 | 80.6 |  | 5860 | 4.71 |  | COc1cc(O)c(C=O)c(OCC(=O)Nc2cc([C@H]3CC[C@@H](OC(=O)N[C@H]4C[C@@H](C#N)C4)C3)[nH]n2)c1 [Compound 138]
25 |  |  | 1200 | 4.85 | 27.3 | COc1cc(O)c(C=O)c(OCC(=O)Nc2cc([C@H]3CC[C@@H](OC(=O)NC4(C)CC4(F)F)C3)[nH]n2)c1 (single isomer, unassigned) [Compound 281, (1R,3S)-3-(3-(2-(2-formyl-3-hydroxy-5-methoxyphenoxy)acetamido)-1H-pyrazol-5-yl)cyclopentyl ((*)-2,2-difluoro-1-methylcyclopropyl)carbamate]
